Results reported in US20190331666A1, “METHODS FOR DRUG DISCOVERY USING STEM CELL-DERIVED SCHWANN CELLS” (MEMORIAL SLOAN-KETTERING CANCER CENTER, priority 2016, published 2019).

Assays:
STZ-treated C57BL6 mice [1] = assay: Transmission electron microscopy of myelin in sciatic nerves of STZ-treated mice; assay type: in vivo; settings: oral in chow ~300 mg/kg daily
Method: (§1) All procedures were performed following NIH guidelines, and were approved by the local Institutional Animal Care and Use Committee (IACUC). 3-8 weeks old male C57BL6 mice were treated with one dose IP injection of streptozotocin (180 mg/kg, sigma, 85882) to induce pancreatic beta cell death. Blood glucose levels was measured using a standard glucometer (Freestyle Lite) in weekly intervals starting at one week post-treatment, by drawing a drop of blood from tail tip. BP treatment was initiated one week post-streptozotocin treatment. BP was mixed with standard chow at 1.63 mg/gram of chow to be administered orally at ˜300 mg/kg daily. The dose was calculated on the basis of average daily food intake (5.5 gram/day) and initial body weight (30 grams).

[2] = test system: sorbitol levels in hESC-SCs; assay: Sorbitol measurement in hESC-SCs; assay type: cell-based, human; settings: high glucose treated hESC-SCs
Method: High glucose, low glucose and drug treated SCs and sensory neurons were subjected to biochemical assays for Sorbitol (abcam, ab118968), glucose (abcam, ab65333), Pyruvate (abcam, ab65342) and 2DG uptake (abcam, ab136955) measurements according to manufacturer's instructions. Data was normalizing according to cell numbers and averaged over 3-6 biological replicates. For validation of the selected hit compound (Bupropion HCL, Sigma, B102), the cells were treated with various concentrations of the compound for dose response analysis. The highest non-toxic dose (0.7 μM-based on optimal sorbitol reduction and viability) was used for follow-up experiments.

STZ-treated C57BL6 mice [3] = assay: Blood glucose in STZ-treated diabetic mice; assay type: in vivo; settings: oral in chow ~300 mg/kg daily
Method: as §1

[4] = test system: patients suffering from neuropathic pain; settings: cited from earlier work
STZ-treated C57BL6 mice [5] = assay: Mouse thermal sensitivity (hot plate) test in STZ-treated mice; assay type: in vivo; settings: seven and eight weeks post STZ, oral in chow ~300 mg/kg daily
Method: as §1, with “grams). Thermal nociception was assessed using the hot plate test. The hot plate (Ugo Basile 35100) consisted of a metal surface (55° C.) with a transparent plexiglass cylinder to contain the mouse. […] Typical baseline latencies are 5-10 seconds, with maximal latencies of 30 seconds.” for “grams).”

[6] = test system: pyruvate levels in hESC-SCs; assay: Pyruvate measurement in hESC-SCs; assay type: cell-based, human; settings: high glucose
Source text: (§2) High glucose, low glucose and drug treated SCs and sensory neurons were subjected to biochemical assays for Sorbitol (abcam, ab118968), glucose (abcam, ab65333), Pyruvate (abcam, ab65342) and 2DG uptake (abcam, ab136955) measurements according to manufacturer's instructions. Data was normalizing according to cell numbers and averaged over 3-6 biological replicates.

[7] = test system: glucose uptake in hESC-SCs; assay: Glucose (2DG) uptake in hESC-SCs; assay type: cell-based, human; settings: high glucose
Source text: as §2

[8] = test system: high glucose treated hESC-SCs; assay: Dose response validation, SC viability / cell death (LDH); assay type: cell-based, human
Method: To monitor the viability of SCs, cells were assayed for LDH activity using CytoTox 96 cytotoxicity assay kit (Promega, G1780). Briefly, the cells were plated in 96 well plates at 30,000 cells/cm^2. The supernatant and the cell lysate is harvested 24 hours later and assayed for LDH activity using a plate reader (490 nm absorbance). Viability was calculated by dividing the LDH signal of the lysate by total LDH signal (from lysate plus supernatant). The cells were cultured in Schwann cell medium (Sciencell, 1701) on PO/LM/FN coated dishes during the assay. For validation of the selected hit compound (Bupropion HCL, Sigma, B102), the cells were treated with various concentrations of the compound for dose response analysis. The highest non-toxic dose (0.7 μM-based on optimal sorbitol reduction and viability) was used for follow-up experiments.

[9] = test system: high glucose treated hESC-SCs; assay: High content screening for drugs reversing glucose-mediated SC cytotoxicity (Prestwick library); assay type: cell-based, human; settings: 30 mM glucose, compounds at 1 μM, 72 hours
Method: The chemical compound screening was performed using the Prestwick Chemical Library®. RFP-labeled hESC-SCs were plated in 384 well plates (1,000/well) and treated with 30 mM glucose immediately before addition of the compounds. The compounds were added at 1 μM concentration. 72 hours later, the plates were treated with DAPI for ten minutes, washed twice and fixed for total plate imaging. The number of viable cells was quantified for each well by counting the number of DAPI negative, RFP positive cells. The percentage of dead cells were calculated for each well by dividing the number of DAPI positive cells by total RFP positive cells.
Data are presented as mean±SEM and were derived from at least 3 independent experiments. Statistical analysis was performed using the Student t-test (comparing 2 groups) or ANOVA with Dunnett test (comparing multiple groups against control). Distribution of the raw data approximated normal distribution (Kolmogorov Smirnov normality test) for data with sufficient number of replicates to test for normality. Survival analysis was performed using log rank (Mantel-Cox) test. Z-scores for primary hits were calculated as Z=(x−μ)/σ. X is the migration score value and is 3 for all hit compounds. μ is the mean migration score value and a is the standard deviation for all compounds and DMSO controls

STZ-treated C57BL6 mice [10] = assay: TUNEL staining of sciatic nerves of STZ-treated mice; assay type: in vivo; settings: oral in chow ~300 mg/kg daily
Method: as §1

[11] = test system: intracellular glucose levels in hESC-SCs; assay: Intracellular glucose measurement in hESC-SCs; assay type: cell-based, human; settings: high glucose
Source text: as §2

rodent GSK3β homologs = settings: cited from earlier work

## CC(NC(C)(C)C)C(=O)c1cccc(Cl)c1.Cl (stereo not drawn) [BP, 2-(tert-butylamino)-1-(3-chlorophenyl)propan-1-one;hydrochloride]
STZ-treated C57BL6 mice [1]
  percentage of damaged myelin in the sciatic nerves: significantly reduced
[2]; Homo sapiens, read-out: IC50 (dose-response in rescuing SC viability and in decreasing sorbitol levels)
  IC50: 263 nM
[2]
  highest non-toxic dose (based on optimal sorbitol reduction and viability): 0.7 µM
[2]; dose used for all further studies
  dose of maximum effect: 0.7
STZ-treated C57BL6 mice [3]
  blood glucose levels: does not affect glucose levels
[4]
  benefit in the treatment of neuropathic pain: some benefit
STZ-treated C57BL6 mice [5]
  response time to thermal stimulation (latency of hind paw withdrawal): significantly improved response time
[6]
  levels of pyruvate: increased
[7]
  glucose uptake: without affecting
[8]; hESC-SCs
  levels inducing gradual dose-dependent toxicity: above 2 μM
[8]; high glucose treated hESC-SCs, various concentrations
  rescuing SC viability: dose-response
[9]
  enhancing the viability of high glucose treated hESC-SCs (primary screen): most potent compound
STZ-treated C57BL6 mice [10]
  TUNEL+ apoptotic cells in the sciatic nerves: significantly fewer apoptotic cells
[11]
  intracellular glucose levels: reduced

## Cc1c[nH]c(-c2cnc(NCCNc3ccc(C#N)cn3)nc2-c2ccc(Cl)cc2Cl)n1 [CHIR99021, 6-(2-(4-(2,4-dichlorophenyl)-5-(4-methyl-1H-imidazol-2-yl)pyrimidin-2-ylamino)ethylamino)nicotinonitrile]
Rodent GSK3β homologs
  IC50 values against rodent GSK3β homologs: nanomolar
